Molecular target: stromelysin catalytic domain (Homo sapiens, UniProt P08254)
Assay: stromelysin catalytic domain hydrolysis of thiopeptolide (SCD (T))
Assay type: biochemical
Conditions: not given

Chain of stromelysin catalytic domain (P08254 100-272 limits assumed): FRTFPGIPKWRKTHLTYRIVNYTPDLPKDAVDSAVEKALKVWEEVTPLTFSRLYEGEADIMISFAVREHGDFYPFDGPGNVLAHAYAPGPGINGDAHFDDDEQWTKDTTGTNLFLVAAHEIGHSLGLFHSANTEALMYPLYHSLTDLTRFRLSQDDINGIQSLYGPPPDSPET

Question: `CC(C)[C@H](NS(=O)(=O)c1ccc(-c2ccc(Cl)cc2)cc1)C(=O)O` [Example 2, (S)-2-(4'-Chloro-biphenyl-4-sulfonylamino)-3-methyl-butyric acid] was tested. Which IC50 did it give?
Answer: 100 nM

Question: For `COc1ccc(-c2ccc(S(=O)(=O)N[C@H](C(=O)O)C(C)C)cc2)cc1` [Example 15, (S)-2-(4'-Methoxy-biphenyl-4-sulfonylamino)-3-methyl-butyric acid], which IC50 is on record?
Answer: 8 nM

Question: With `CC(C)[C@H](NS(=O)(=O)c1ccc(-c2ccc(C#N)cc2)cc1)C(=O)O` [Example 5, (S)-2-(4'-Cyano-biphenyl-4-sulfonylamino)-3-methyl-butyric acid] as the molecule, how does the IC50 read?
Answer: 9 nM

Same assay, conditions: thiopeptolide substrate; read-out: SCD (T) (IC50)

Question: For `CC(C)[C@H](NS(=O)(=O)c1ccc(-c2ccc(F)cc2)cc1)C(=O)O` [Example 16, (S)-2-(4'-Fluoro-biphenyl-4-sulfonylamino)-3-methyl-butyric acid], which IC50 is on record?
Answer: 14 nM

Question: Which IC50 does the source give for `CC(C)C[C@H](NS(=O)(=O)c1ccc(-c2ccc(Br)cc2)cc1)C(=O)O` [Example 14, (S)-2-(4'-Bromo-biphenyl-4-sulfonylamino)-4-methyl-pentanoic acid] here?
Answer: 13 nM

Question: Which IC50 does the source give for `CC(C)[C@H](NS(=O)(=O)c1ccc(-c2ccc(Br)cc2F)cc1)C(=O)O` [Example 8, (S)-2-(4'-Bromo-2'-fluoro-biphenyl-4-sulfonylamino)-3-methyl-butyric acid] here?
Answer: 30 nM

Question: How did the IC50 turn out when `CC(C)[C@H](NS(=O)(=O)c1ccc(-c2ccc(N)cc2)cc1)C(=O)O` [Example 4, (S)-2-(4'-Amino-biphenyl-4-sulfonylamino)-3-methyl-butyric acid] was run?
Answer: 67 nM

Question: For `CC(C)[C@H](NS(=O)(=O)c1ccc(-c2cccc(F)c2)cc1)C(=O)O` [Example 17, (S)-2-(3'-Fluoro-biphenyl-4-sulfonylamino)-3-methyl-butyric acid], which IC50 is on record?
Answer: 27 nM

Question: For `Cc1ccc(-c2ccc(S(=O)(=O)N[C@H](C(=O)O)C(C)C)cc2)cc1` [Example 18, (S)-3-Methyl-2-(4'-methyl-biphenyl-4-sulfonylamino)-butyric acid], which IC50 is on record?
Answer: 12 nM

Question: For `CC(C)[C@H](NS(=O)(=O)c1ccc(-c2cccc(Br)c2)cc1)C(=O)O` [Example 7, (S)-2-(3'-Bromo-biphenyl-4-sulfonylamino)-3-methyl-butyric acid], which IC50 is on record?
Answer: 347 nM

Question: With `O=C(O)[C@H](Cc1ccccc1)NS(=O)(=O)c1ccc(-c2ccc(Br)cc2)cc1` [Example 10, (S)-2-(4'-Bromo-biphenyl-4-sulfonylamino)-3-phenyl-propionic acid] as the molecule, how does the IC50 read?
Answer: 26 nM

Question: Which IC50 does the source give for `O=C(O)CNS(=O)(=O)c1ccc(-c2ccc(Br)cc2)cc1` [Example 12, (4'-Bromo-biphenyl-4-sulfonylamino)-acetic acid] here?
Answer: 60 nM

Question: Which IC50 does the source give for `C[C@H](NS(=O)(=O)c1ccc(-c2ccc(Br)cc2)cc1)C(=O)O` [Example 13, (S)-2-(4'-Bromo-biphenyl-4-sulfonylamino)-propionic acid] here?
Answer: 28 nM

Question: Which IC50 does the source give for `CC(C)[C@H](NS(=O)(=O)c1ccc(-c2ccc([N+](=O)[O-])cc2)cc1)C(=O)O` [Example 3, (S)-3-Methyl-2-(4'-nitro-biphenyl-4-sulfonylamino)-butyric acid] here?
Answer: 31 nM

Molecular target: T1, full-length collagenase (Homo sapiens, UniProt P03956)
T1 sequence (P03956 100-469): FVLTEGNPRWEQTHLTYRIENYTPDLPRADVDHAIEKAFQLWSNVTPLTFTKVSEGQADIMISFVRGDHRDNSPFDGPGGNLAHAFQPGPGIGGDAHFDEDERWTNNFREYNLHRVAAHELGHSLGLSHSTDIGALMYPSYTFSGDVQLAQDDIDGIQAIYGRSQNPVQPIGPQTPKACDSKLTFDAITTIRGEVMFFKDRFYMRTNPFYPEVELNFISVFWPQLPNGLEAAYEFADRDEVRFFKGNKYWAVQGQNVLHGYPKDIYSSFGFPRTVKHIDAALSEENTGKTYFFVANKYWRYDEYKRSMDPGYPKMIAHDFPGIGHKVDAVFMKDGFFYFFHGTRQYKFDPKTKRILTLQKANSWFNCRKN
Assay: full-length collagenase hydrolysis of thiopeptolide substrate (FLC)
Assay type: biochemical
Conditions: not given
Excerpt: (§1) The compounds were additionally evaluated for their ability to inhibit full-length collagenase hydrolysis of thiopeptolide substrate (FLC) and full-length gelatinase B (FLGB) hydrolysis of thiopeptolide.

Question: `CC(C)[C@H](NS(=O)(=O)c1ccc(-c2ccc(Cl)cc2)cc1)C(=O)O` [Example 2, (S)-2-(4'-Chloro-biphenyl-4-sulfonylamino)-3-methyl-butyric acid] was tested. Which IC50 did it give?
Answer: 7500 nM

Molecular target: T2, full-length gelatinase B (Homo sapiens, UniProt P14780)
T2 construct: full-length gelatinase B (FLGB) hydrolysis of thiopeptolide
Assay: full-length gelatinase B hydrolysis of thiopeptolide (FLGB)
Assay type: biochemical
Conditions: thiopeptolide substrate
Excerpt: as §1

T2 sequence (P14780 94-707, species assumed): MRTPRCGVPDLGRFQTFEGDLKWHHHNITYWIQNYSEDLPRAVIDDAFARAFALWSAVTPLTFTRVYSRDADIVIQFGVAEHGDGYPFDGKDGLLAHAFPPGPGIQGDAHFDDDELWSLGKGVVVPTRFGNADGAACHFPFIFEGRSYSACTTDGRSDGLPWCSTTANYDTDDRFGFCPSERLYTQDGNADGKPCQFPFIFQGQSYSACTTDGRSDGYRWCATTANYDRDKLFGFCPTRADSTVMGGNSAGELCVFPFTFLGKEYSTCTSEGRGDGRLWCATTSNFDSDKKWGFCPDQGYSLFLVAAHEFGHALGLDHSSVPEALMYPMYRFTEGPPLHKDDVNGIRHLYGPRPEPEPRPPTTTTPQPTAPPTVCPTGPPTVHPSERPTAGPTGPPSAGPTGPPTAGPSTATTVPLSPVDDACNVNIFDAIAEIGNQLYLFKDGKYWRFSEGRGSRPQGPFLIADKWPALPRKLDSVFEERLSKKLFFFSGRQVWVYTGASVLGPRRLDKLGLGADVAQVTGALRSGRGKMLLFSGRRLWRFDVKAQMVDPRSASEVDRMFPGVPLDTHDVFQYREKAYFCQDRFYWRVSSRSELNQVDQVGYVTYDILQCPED

Question: How did the IC50 turn out when `CC(C)[C@H](NS(=O)(=O)c1ccc(-c2ccc(Cl)cc2)cc1)C(=O)O` [Example 2, (S)-2-(4'-Chloro-biphenyl-4-sulfonylamino)-3-methyl-butyric acid] was run?
Answer: 23000 nM

Question: Which IC50 does the source give for `CC(C)[C@H](NS(=O)(=O)c1ccc(-c2ccc(Br)cc2)cc1)C(=O)O` [Example 1, (S)-2-(4'-Bromo-biphenyl-4-sulfonylamino)-3-methyl-butyric acid] here?
Answer: 8340 nM
